From patent publication US10010520B2, “Combined application of isothiocyanate compound and anti-cancer medicine” (JC (WUXI) COMPANY, INC., priority 2013, dated 2018)
“And” between values parts separate entries of the source, which are not always exact repeats. Equal values may be shown once. Read-outs that look alike come from different tables or passages of the source.

Key:
HeLa cells = assay: CellTiter-Glo cell viability, drugs alone or in combination, HeLa cells; assay type: cell-based, human
Procedure: (§1) isothiocyanates or derivatives thereof and DNA-effecting or influencing anticancer drugs, kinase-inhibiting anticancer drugs or hormonal anticancer drugs for endocrine therapy were administered separately or in combination to cancer cells. Cells were seeded into 384-well plates, and cultured for 24 hours in a CO2 incubator. Drugs were dissolved in DMSO and diluted to 9 concentration-gradients in 96 well plates, and then added to corresponding cells in 384-well plates, in which the concentrations of DMSO in 384 well plates were less than 1%. Triplicate wells were set for each concentration. After administration, the cells were cultured in the CO2 incubator for another 72 hrs, and afterwards, cell viability was tested by using CellTiter-Glo® reagent and luminescence detector. And IC50 values of each administration group were calculated.
(§2) CI value was calculated by the following formula: CI=(Am)50/(As)50+(Bm)50/(Bs)50,
(§3) Triplicate wells were set for each co-administration cell well.
(§4) After administration, cells were cultured in the CO2 incubator for another 72 hrs, and afterwards, cell viability was tested by using CellTiter-Glo® reagent and luminescence detector. Curves were plotted according to concentrations or logarithm concentrations of drug A vs cell inhibition rate in the corresponding cell well, and IC50, i.e. (Am)50 was calculated.
(§5) 9 concentration gradients of drug A were set (A1, A2, A3, A4, A5, A6, A7, A8, A9), and administrated alone to the corresponding cells in the 384 well plate, and triplicate wells were set for each administration concentration. After administration, the cells were cultured in the CO2 incubator for another 72 hrs, and afterwards, cell viability was tested by using CellTiter-Glo® reagent and luminescence detector. Curves were plotted according to concentration or logarithm concentration of drug A vs the cell inhibition rate in the corresponding cell well, and IC50, i.e. (As)50 was calculated.
(§6) After administration, the cells were cultured in the CO2 incubator for another 72 hrs, and afterwards, cell viability was tested by using CellTiter-Glo® reagent and luminescence detector.

Jurkat E6-1 cells = assay: CellTiter-Glo cell viability, drugs alone or in combination, Jurkat E6-1 cells; assay type: cell-based, human; conditions: Jurkat E6-1 cells, 72 hrs, read-out: (As)50, IC50 of drug A when used alone
Procedure: as §1, §2, §3, §4, §5, §6

Saos-2 cells = assay: CellTiter-Glo cell viability, drugs alone or in combination, Saos-2 cells; assay type: cell-based, human
Procedure: as §1, §2, §3, §4, §5, §6

SK-MEL-28 cells = assay: CellTiter-Glo cell viability, drugs alone or in combination, SK-MEL-28 cells; assay type: cell-based; conditions: Homo sapiens, 72 hrs
Procedure: as §1, §2, §3
(§7) After administration, cells were cultured in the CO2 incubator for another 72 hrs, and afterwards, cell viability was tested by using CellTiter-Glo® reagent and luminescence detector. Curves were plotted according to concentrations or logarithm concentrations of drug A vs cell inhibition rate in the corresponding cell well, and IC50, i.e. (Am)50 was calculated. […]

[1] = test system: human leukemia HL-60 cells; assay: CellTiter-Glo cell viability, drugs alone or in combination, HL-60 cells; assay type: cell-based; conditions: read-out: (As)50, IC50 of drug A when used alone
Procedure: as §1, §2, §3, §4, §5, §6

A549 cells = assay: CellTiter-Glo cell viability, drugs alone or in combination, A549 cells; assay type: cell-based, human
Procedure: as §1, §2, §3, §4, §5, §6

[2] = test system: pancreatic cancer cells PANC-1; assay: CellTiter-Glo cell viability, drugs alone or in combination, PANC-1 cells; assay type: cell-based, human; conditions: PANC-1 cells, 72 hrs
Procedure: as §1, §2, §3, §4, §5, §6

DU145 cells = assay: CellTiter-Glo cell viability, drugs alone or in combination, DU145 cells; assay type: cell-based, human
Procedure: (§8) Cell culture: Androgen-dependent human prostate cancer cells LNCaP, from Shanghai Medicilon Ltd., were placed in a 37° C., 5% CO2 cell incubator, and were cultured in RPMI1640 culture medium with 10% FBS. Androgen-independent human prostate cancer cells DU145, PC-3, from Shanghai Medicilon Ltd., were placed in a 37° C., 5% CO2 cell incubator, and were cultured in F12 culture medium with 10% FBS.
as §1, §2, §3, §4, §5, §6

LNCaP cells = assay: CellTiter-Glo cell viability, drugs alone or in combination, LNCaP cells; assay type: cell-based, human; conditions: LNCaP cells, 72 hrs
Procedure: as §8, §1, §2, §3, §4, §5, §6

PC-3 cells = assay: CellTiter-Glo cell viability, drugs alone or in combination, PC-3 cells; assay type: cell-based; conditions: Homo sapiens, 72 hrs
Procedure: as §8
isothiocyanates or derivatives thereof and DNA-effecting or influencing anticancer drugs, kinase-inhibiting anticancer drugs or hormonal anticancer drugs for endocrine therapy were administered separately or in combination to cancer cells. […] After administration, the cells were cultured in the CO2 incubator for another 72 hrs, and afterwards, cell viability was tested by using CellTiter-Glo® reagent and luminescence detector. And IC50 values of each administration group were calculated.
CI value was calculated by the following formula: CI=(Am)50/(As)50+(Bm)50/(Bs)50, […]
as §7

[3] = test system: human gastric cancer AGS cells; assay: CellTiter-Glo cell viability, drugs alone or in combination, AGS cells
U251 cells = assay: CellTiter-Glo cell viability, drugs alone or in combination, U251 cells; conditions: Homo sapiens, U-251, 72 h
HT29 cells = assay: CellTiter-Glo cell viability, drugs alone or in combination, HT29 cells; conditions: Homo sapiens, HT-29, 72 h
[4] = test system: human kidney cancer cells 786-O; assay: CellTiter-Glo cell viability, drugs alone or in combination, 786-O cells; conditions: 786-0, 72 h
OVCAR-3 cells = assay: CellTiter-Glo cell viability, drugs alone or in combination, OVCAR-3 cells
[5] = test system: Human breast cancer MDA-MB-231 cells; assay: CellTiter-Glo cell viability, drugs alone or in combination, MDA-MB-231 cells
[6] = Homo sapiens, HeLa, 72 h, read-out: (As)50, IC50 of drug A when used alone
[7] = Homo sapiens, SAOS-2, 72 h, Saos-2 cells, 72 hrs, read-out: (As)50, IC50 of drug A when used alone
[8] = read-out: (As)50, IC50 of drug A when used alone
[9] = 72 hrs, read-out: (As)50, IC50 of drug A when used alone
[10] = Homo sapiens, PANC-1, 72 h, read-out: (As)50, IC50 of drug A when used alone
[11] = Homo sapiens, LNCaP, 72 h, read-out: (As)50, IC50 of drug A when used alone
[12] = read-out: (As)50, IC50 of drug A when used alone, 786-O cells, 72 hrs
[13] = Homo sapiens, MDA-MB-231, 72 h, read-out: (As)50, IC50 of drug A when used alone, MDA-MB-231 cells, 72 hrs
[14] = Homo sapiens, A549, 72 h, read-out: (Bs)50, IC50 of drug B when used alone
[15] = read-out: (Bs)50, IC50 of drug B when used alone
[16] = Homo sapiens, OVCAR-3, 72 h, read-out: (Bs)50, IC50 of drug B when used alone, OVCAR-3 cells, 72 hrs
[17] = 72 hrs, read-out: (Bs)50, IC50 of drug B when used alone
[18] = Homo sapiens, DU-145, 72 h, read-out: (Bs)50, IC50 of drug B when used alone
[19] = Homo sapiens, AGS, 72 h, read-out: (Bs)50, IC50 of drug B when used alone, AGS cells
[20] = Homo sapiens, LNCaP, 72 h, read-out: (Bs)50, IC50 of drug B when used alone

## S=C=NCCc1ccccc1 [Phenethyl isothiocyanate]
HeLa cells; [6]
  IC50: 16.1 µM
Jurkat E6-1 cells; Homo sapiens, Jurkat E6.1, 72 h
  IC50: 12.1 µM
Jurkat E6-1 cells
  IC50: 11.6 µM and 12.1 µM and 11.5 µM
Saos-2 cells; [7]
  IC50: 20.5 µM
SK-MEL-28 cells; [8]
  IC50: 32.7 µM
[1]; 72 hrs
  IC50: 6.66 µM
[1]; Homo sapiens, HL-60, 72 h
  IC50: 6.27 µM
A549 cells; [9]
  IC50: 22.3 µM
A549 cells; Homo sapiens, A549, 72 h, read-out: (As)50, IC50 of drug A when used alone
  IC50: 22 µM
[2]; [10]
  IC50: 19.6 µM
DU145 cells; [9]
  IC50: 19.4 µM
LNCaP cells; [11]
  IC50: 20.4 µM
PC-3 cells; [8]
  IC50: 52.6 µM
[3]; Homo sapiens, AGS, 72 h, read-out: (As)50, IC50 of drug A when used alone, AGS cells
  IC50: 14.7 µM
[3]; read-out: (As)50, IC50 of drug A when used alone, AGS cells, 72 hrs
  IC50: 11.8 µM
U251 cells; read-out: (As)50, IC50 of drug A when used alone, U251 cells, 72 hrs
  IC50: 20.9 µM
HT29 cells; [8]
  IC50: 29.2 µM
[4]; [12]
  IC50: 16 µM
OVCAR-3 cells; read-out: (As)50, IC50 of drug A when used alone, OVCAR-3 cells, 72 hrs
  IC50: 31.8 µM and 9.87 µM
[5]; [13]
  IC50: 25.1 µM

## Nc1ccn([C@@H]2O[C@H](CO)[C@@H](O)C2(F)F)c(=O)n1 [gemcitabine, Gemcitabine, reference compound]
A549 cells; [14]
  IC50: 9.54 µM
[2]; [15]
  IC50: 32.4 µM
OVCAR-3 cells; [16]
  IC50: 89.7 µM

## Bleomycin [reference compound]
HeLa cells; [17]
  IC50: 24.5 µM

## CO[C@H]1C(=O)[C@]2(C)[C@@H](OC)C[C@H]3OC[C@@]3(OC(C)=O)[C@H]2[C@H](OC(=O)c2ccccc2)[C@]2(O)C[C@H](OC(=O)[C@H](O)[C@@H](NC(=O)OC(C)(C)C)c3ccccc3)C(C)=C1C2(C)C [Cabazitaxel]
DU145 cells; [18]
  IC50: 0.0265 µM

## COc1cccc2c1C(=O)c1c(O)c3c(c(O)c1C2=O)C[C@@](O)(C(=O)CO)C[C@@H]3O[C@H]1C[C@H](N)[C@H](O)[C@H](C)O1 [adriamycin, reference compound]
Saos-2 cells; Homo sapiens, SAOS-2, 72 h, Saos-2 cells, 72 hrs, read-out: (Bs)50, IC50 of drug B when used alone
  IC50: 0.899 µM
Saos-2 cells; Saos-2 cells, 72 hrs, read-out: (Bs)50, IC50 of drug B when used alone
  IC50: 0.574 µM
[3]; [19]
  IC50: 0.0534 µM
OVCAR-3 cells; [16]
  IC50: 1.74 µM

## CC(O)(CS(=O)(=O)c1ccc(F)cc1)C(=O)Nc1ccc(C#N)c(C(F)(F)F)c1 (stereo not shown) [Bicalutamide, bicalutamide, reference compound]
DU145 cells; [18]
  IC50: 130 µM
LNCaP cells; [20]
  IC50: 72.5 µM
LNCaP cells; [15]
  IC50: 70 µM

## Nc1nc2c(c(=O)[nH]1)N(C=O)C(CNc1ccc(C(=O)N[C@@H](CCC(=O)O)C(=O)O)cc1)CN2 (stereo partly shown) [Leucovorin, reference compound]
HT29 cells; [15]
  IC50: > 100 µM

## CN(Cc1cnc2nc(N)nc(N)c2n1)c1ccc(C(=O)N[C@@H](CCC(=O)O)C(=O)O)cc1 [methotrexate, reference compound]
A549 cells; [14]
  IC50: 0.08 µM

## S=C=NCc1ccccc1 [Benzyl isothiocyanate, benzyl isothiocyanate]
HeLa cells; [6]
  IC50: 14.7 µM
Saos-2 cells; [7]
  IC50: 14.5 µM
[1]; Homo sapiens, HL-60, 72 h
  IC50: 11.5 µM
[2]; [10]
  IC50: 23.4 µM
LNCaP cells; [11]
  IC50: 18.5 µM
[4]; [12]
  IC50: 13.2 µM
[5]; [13]
  IC50: 11.4 µM

## N.N.[Cl][Pt][Cl] [cisplatin, Cisplatin, reference compound]
HeLa cells; [17]
  IC50: 32.8 µM
OVCAR-3 cells; read-out: (Bs)50, IC50 of drug B when used alone, OVCAR-3 cells, 72 hrs
  IC50: 20.6 µM

## S=C=NC1CCCCC1 [cyclohexyl isothiocyanate]
Jurkat E6-1 cells; Homo sapiens
  IC50: 42.1 µM
Saos-2 cells; Homo sapiens, SAOS-2, 72 h, read-out: (As)50, IC50 of drug A when used alone
  IC50: 66 µM
[1]; Homo sapiens, HL-60, 72 h
  IC50: 52.7 µM
[2]; Homo sapiens, read-out: (As)50, IC50 of drug A when used alone
  IC50: 193 µM
LNCaP cells; [11]
  IC50: 54 µM
U251 cells; [8]
  IC50: 71.1 µM
[4]; [8]
  IC50: 107 µM
OVCAR-3 cells; Homo sapiens, OVCAR-3, 72 h, read-out: (As)50, IC50 of drug A when used alone
  IC50: 36.5 µM
[5]; Homo sapiens, MDA-MB-231, 72 h, read-out: (As)50, IC50 of drug A when used alone
  IC50: 37.5 µM

## CC(=O)O[C@@]12CO[C@@H]1C[C@H](O)[C@@]1(C)C(=O)[C@H](O)C3=C(C)[C@@H](OC(=O)[C@H](O)[C@@H](NC(=O)OC(C)(C)C)c4ccccc4)C[C@@](O)([C@@H](OC(=O)c4ccccc4)[C@H]21)C3(C)C [docetaxel, reference compound]
[3]; [19]
  IC50: 0.00974 µM
[5]; read-out: (Bs)50, IC50 of drug B when used alone, MDA-MB-231 cells, 72 hrs
  IC50: 0.391 µM

## CCCS(=O)(=O)Nc1ccc(F)c(C(=O)c2c[nH]c3ncc(-c4ccc(Cl)cc4)cc23)c1F [Vemurafenib, reference compound]
SK-MEL-28 cells; [15]
  IC50: 1.2 µM

## C[C@]12CC[C@H](O)CC1=CC[C@@H]1[C@@H]2CC[C@]2(C)C(c3cccnc3)=CC[C@@H]12 [Abiraterone, abiraterone, reference compound]
DU145 cells; [18]
  IC50: 37.4 µM
LNCaP cells; [20]
  IC50: 21.2 µM
PC-3 cells; [15]
  IC50: 101 µM
